Data taken from US8067468B2, “L-carnitine and alkanoyl L-carnitine phytates and process for preparing the same” (priority 2009, dated 2011).
Structures can show the parent of a compound that is named as a salt. Each block holds one compound with its values, some of them ahead of it.

Assays:
[1] = Odor of the dried product (sign of decomposition / acid smell); type: physicochemical; conditions: dried solid product
Procedure: According to one embodiment, 96.7 grams (0.6 mole) of L-carnitine inner salt (C7H15NO3, molecular weight 161.20) was added to a 50% aqueous solution (having a pH value <1) of 66.0 grams (0.1 mole) phytic acid and stirred at room temperature resulting in an exothermic reaction. […] According to one embodiment, the solution (having a pH value of about 4) was further stirred 20 minutes. […] According to one embodiment, the residue is further dried in a vacuum oven at 50° C. to obtain 166.2 grams of white solid powder with an almost quantitative yield (i.e., the white solid powder contains 2% H2O).
According to one embodiment, 122.09 grams (0.6 mole) of acetyl L-carnitine inner salt (C9H17NO4, molecular weight 203.24) was added to a 50% aqueous solution (having a pH value <1) of 66.0 grams (0.1 mole) phytic acid and stirred at room temperature resulting in an exothermic reaction. […] According to one embodiment, the residue is further dried in a vacuum oven at 50° C. to obtain 192.7 grams of white solid powder with an almost quantitative yield (i.e., the white solid powder contains 2% H2O). […]

[2] = pH value of the product (c=1% H2O); type: physicochemical
Procedure: According to one embodiment, the solution (having a pH value of about 4) was further stirred 20 minutes. According to one embodiment, the solution was concentrated on an evaporator under a vacuum at 50° C. According to one embodiment, the residue was repeatedly (3 times) taken up using anhydrous ethanol under a vacuum to dry the solution as much as possible.

[3] = post-administration, independent of route; cited from earlier work
[4] = test system: human mammary cancer cell line; conditions: incubated with a human mammary cancer cell line; cited from earlier work
[5] = cited from earlier work
mice = test: Single dose oral acute toxicity study (LD50); type: in vivo
Procedure: The single dose oral acute toxicity of L-carnitine phytate (in a 6:1 mole ratio) was evaluated in mice. Five dosages (25, 20, 15, 10, and 5 g/Kg) were orally administrated to five groups of mice in which each group had five male and five female mice. After dosing, the five groups of mice were observed and daily records (for 14 days) were made of their general conditions, toxic response, and deaths. All of the dead mice were necropsied, in which each of the body's thorace and abdomen were opened, and each heart, liver, spleen, lung, kidney, and intestine were examined and recorded.

Compound: CC(=O)O[C@H](CC(=O)O)C[N+](C)(C)C [Example Embodiment 3, Acetyl L-Carnitine Phytate (in a 6:1 mole ratio)]
odor [1]: odorless | pH value [2]: 4

odor [1]: odorless | pH value [2]: 4
Compound: Propinoyl L-Carnitine Phytate (in a 6:1 mole ratio) [Example Embodiment 4]

Compound: O=P(O)(O)O[C@H]1[C@H](OP(=O)(O)O)[C@@H](OP(=O)(O)O)[C@H](OP(=O)(O)O)[C@@H](OP(=O)(O)O)[C@H]1OP(=O)(O)O [phytic acid, Phytic acid]
time to reach targeted tumor tissue [3]: as early as one hour post-administration | time of first detection of IP6 in cells [4]: as early as one minute post-incubation | pKa of the remaining three very weakly acidic sites [5]: greater than 10 | pKa of the six strongly acidic proton dissociation sites ([5]; first dissociation proton of each phosphate group): ~1.5

pH value [2]: 4
Compound: CC(C)C(=O)O[C@H](CC(=O)O)C[N+](C)(C)C [Example Embodiment 6, Isobutyryl L-Carnitine Phytate (in a 6:1 mole ratio)]

Compound: L-Carnitine Phytate (in a 6:1 mole ratio) [Example Embodiment 2]
necropsy findings in hearts, livers, spleens, lungs, kidneys and intestines (mice; single oral dose 5-25 g/Kg, dead mice necropsied): not any obvious abnormalities observed | acute oral LD50 (mice; single oral dose, observed for 14 days): 14.86 g/kg

pH value [2]: 4
Compound: Butyryl L-Carnitine Phytate (in a 6:1 mole ratio) [Example Embodiment 5]

Compound: C[N+](C)(C)C[C@H](O)CC(=O)[O-] [L-carnitine's inner salt, L-carnitine inner salt]
pKa value [5]: 3.8
